Experimental data taken from patent US4578489A (priority 1982, dated 1986).
Like-named read-outs stand apart in the source and are kept apart here.

Legend:
[1] = test system: Proteus vulgaris; assay: Minimum inhibitory concentration against bacteria, strain A; format: cell-based; conditions: 24 hours at 30° C.; tested at 100 and 300 mg/liter
Outline: (§1)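 Each strain, grown overnight in Caso peptone bouillon, is diluted 1/1000 in saline and again 1/1000 in fresh bouillon. After addition of compound (100 or 300 mg/liter) and 24 hours' shaking incubation at 30° C., turbidity indicates whether growth occurred.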

[2] = test system: Cladosporium cladosporioides; assay: Minimum inhibitory concentration against fungi, agar incorporation test, strain O; format: cell-based; conditions: malt extract/agar
Outline: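 Compounds incorporated into malt extract agar at final concentrations of 2, 5, 10, 50 and 100 mg/liter, with fungal traces added dropwise. Value is the concentration (mg/liter) required to inhibit fungal growth.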

[3] = test system: Aspergillus niger; assay: Minimum inhibitory concentration against fungi, agar incorporation test, strain K; format: cell-based; conditions: malt extract/agar
Outline: (§2)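 Growth inhibition read visually on agar plates spotted with trace fungal inoculum. Each compound was mixed into malt extract agar to give final levels of 2–100 mg/liter (2, 5, 10, 50, 100), and the MIC was recorded in mg/liter.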

[4] = test system: Aspergillus phoenicis; assay: Minimum inhibitory concentration against fungi, agar incorporation test, strain L; format: cell-based; conditions: malt extract/agar
Outline: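 Agar incorporation test in malt extract agar with compound at final 2, 5, 10, 50 and 100 mg/liter, inoculated dropwise with fungus; value is concentration (mg/liter) inhibiting growth.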

[5] = test system: Alternaria alternata; assay: Minimum inhibitory concentration against fungi, agar incorporation test, strain N; format: cell-based; conditions: malt extract/agar
Outline: as §2

[6] = test system: Candida albicans; assay: Minimum inhibitory concentration against fungi, agar incorporation test, strain P; format: cell-based; conditions: malt extract/agar
Outline: as §2

[7] = test system: Enteromorpha intestinalis; assay: Action against Enteromorpha intestinalis: inhibitory concentration (MIC); format: in vivo; conditions: seawater containing biocide for entire test; concentration tested 0.5 mg/liter
Outline: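 Enteromorpha intestinalis was incubated at 18° C on a 14 h light/10 h dark cycle in sterile-filtered seawater with Erd-Schreiber nutrient solution (nutrient extract, phosphate, nitrate). For MIC, algae remained in biocide-containing seawater for the whole test at 0.5 mg/liter.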

[8] = test system: Aureobasidium pullulans; assay: Minimum inhibitory concentration against fungi, agar incorporation test, strain R; format: cell-based; conditions: malt extract/agar
Outline: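 Compounds incorporated in malt extract agar at final 2, 5, 10, 50 and 100 mg/liter. Agar inoculated dropwise with traces of fungus. Value is the concentration (mg/liter) needed to inhibit growth.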

[9] = test system: mixed culture of bacteria; format: cell-based; parameters: key: +: growth, no destruction; (+): growth less than that of control (>10 colonies), slight destruction; (-): slight growth (1-10 colonies); -: no growth, destruction
[10] = test system: Penicillium funiculosum; assay: Minimum inhibitory concentration against fungi, agar incorporation test, strain M; format: cell-based; conditions: malt extract/agar
Outline: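 Compounds incorporated into malt extract agar at final 2, 5, 10, 50 and 100 mg/liter, then inoculated dropwise with fungus. Value is the concentration (mg/liter) inhibiting growth.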

[11] = test system: Aureobasidium pullulans; assay: Growth on wood; parameters: key: 1: growth on the wood; 2: slight growth on the wood; 3: no growth on the wood; 4: no growth on the wood and an inhibitory zone; conditions: 28°, 4 weeks
Description: Small blocks of spruce wood, 7×10×10 mm in size, are dried in vacuo. The small blocks are then vacuum-impregnated by keeping them, in vacuo, in 100 ml of distilled water+biocide for 30 minutes and then subjecting them to a pressure treatment (2 atmospheres gauge by means of compressed air) for 18 hours in the water. The pieces of wood treated in this way are first subjected to leaching in running water and are then dried.
The dried pieces of wood are placed on potato/glucose agar and the wood, as well as the surrounding agar, is inoculated with 0.1 ml of a spore suspension of Aureobasidium pullulans. After incubation at 28° for 4 weeks, the growth is evaluated in accordance with the following rating: […]

[12] = test system: Artemia salina; assay: Action against Artemia salina nauplii; format: in vivo; parameters: key: 0: no change; 1: slight change; 1-2: animals are attacked; 2: animals are strongly attacked; 2-3: animals are nearly all dead; 3: animals are all dead
Description: The eggs, which are available commercially, are caused to hatch by vigorous aeration. When 2-3 days old, the nauplii are exposed to the products at various concentrations (concentrations tested: 2.5; 1; 0.5 and 0.25 mg/liter) in synthetic seawater, and are observed over a prolonged period of time.

[13] = test system: Pseudomonas aeruginosa; assay: Minimum inhibitory concentration against bacteria, strain B; format: cell-based; conditions: 24 hours at 30° C.; tested at 100 and 300 mg/liter
Outline: as §1

[14] = test system: Bacillus subtilis; assay: Minimum inhibitory concentration against bacteria, strain F; format: cell-based; conditions: 24 hours at 30° C.; tested at 100 and 300 mg/liter
Outline: as §1

[15] = test system: Chlorella vulgaris; assay: Action against algae: Chlorella vulgaris; format: cell-based; parameters: key: --: no growth on the agar, 3 ppm have destroyed the algae in 6 hours; conditions: 3 mg/liter
Outline: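 14-day cultures diluted 1/200 in nutrient medium received compound at 3 mg/liter final. After 6 h, samples were spotted on algae/agar for algicidal action; growth inhibition in medium and killing on agar assessed visually after 14 days under 14 h light/10 h dark.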

[16] = test system: Alcaligenes denitrificans; assay: Minimum inhibitory concentration against bacteria, strain E; format: cell-based; conditions: 24 hours at 30° C.; tested at 100 and 300 mg/liter
Outline: as §1

[17] = test system: Serratia marcencens; assay: Minimum inhibitory concentration against bacteria, strain D; format: cell-based; conditions: 24 hours at 30° C.; tested at 100 and 300 mg/liter
Outline: as §1

[18] = test system: Enterobacter aerogenes; assay: Minimum inhibitory concentration against bacteria, strain C; format: cell-based; conditions: 24 hours at 30° C.; tested at 100 and 300 mg/liter
Outline: as §1

[19] = test system: Enteromorpha intestinalis; assay: Action against Enteromorpha intestinalis: destruction (minimum killing concentration); format: in vivo; conditions: 4 hours in seawater, then 6-8 weeks in fresh seawater
Outline: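 Enteromorpha intestinalis grown in sterile-filtered seawater with Erd-Schreiber nutrient solution at 18° C., 14 h light/10 h dark. Algae exposed to test compound in seawater for 4 hours, then washed and held in fresh seawater for 6-8 weeks. MKC is the lowest amount at which algae cannot recover and die.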

[20] = test system: Chaetomium globosum; assay: Minimum inhibitory concentration against fungi, agar incorporation test, strain S; format: cell-based; conditions: malt extract/agar
Outline: as §2

[21] = test system: Endomyces geotrichum; assay: Minimum inhibitory concentration against fungi, agar incorporation test, strain Q; format: cell-based; conditions: malt extract/agar
Outline: as §2

CCCCCCCCCCCCCC[N+](C)(C)Cc1ccccc1.CCC[CH2][Sn-]([Cl])([Cl])([CH2]CCC)[CH2]CCC [Example 2, dimethyl-benzyl-tetradecylammonium tributyldichlorostannate-(IV)]
MIC against bacteria, strain A [1]: 100 µg/mL
MIC against fungi, strain O [2]: 2 µg/mL
MIC against fungi, strain K [3]: 2 µg/mL
MIC against fungi, strain L [4]: 2 µg/mL
MIC against fungi, strain N [5]: 2 µg/mL
MIC against fungi, strain P [6]: 5 µg/mL
MIC [7]: 0.5 µg/mL
MIC against fungi, strain R [8]: 2 µg/mL
Growth (destruction of a mixed culture of bacteria) ([9]; 5 mg/l, culture diluted 1/1000 in Tyrode): +
Growth (destruction of a mixed culture of bacteria) ([9]; 5 mg/l, culture diluted 1/10000 in Tyrode): +
Growth (destruction of a mixed culture of bacteria) ([9]; 10 mg/l, culture diluted 1/1000 in Tyrode): +
Growth (destruction of a mixed culture of bacteria) ([9]; 10 mg/l, culture diluted 1/10000 in Tyrode): +
Growth (destruction of a mixed culture of bacteria) ([9]; 30 mg/l, culture diluted 1/1000 in Tyrode): (+) (growth less than that of control (>10 colonies), slight destruction)
Growth (destruction of a mixed culture of bacteria) ([9]; 30 mg/l, culture diluted 1/10000 in Tyrode): -
Growth (destruction of a mixed culture of bacteria) ([9]; 60 mg/l, culture diluted 1/1000 in Tyrode): (+) (growth less than that of control (>10 colonies), slight destruction)
Growth (destruction of a mixed culture of bacteria) ([9]; 60 mg/l, culture diluted 1/10000 in Tyrode): -
Growth (destruction of a mixed culture of bacteria) ([9]; 100 mg/l, culture diluted 1/1000 in Tyrode): (-) (slight growth (1-10 colonies))
Growth (destruction of a mixed culture of bacteria) ([9]; 100 mg/l, culture diluted 1/10000 in Tyrode): -
MIC against fungi, strain M [10]: 2 µg/mL
growth on wood, leached for 5 days ([11]; 0.01 % in H2 O): 4
growth on wood, not leached ([11]; 0.01 % in H2 O): 4
growth on wood, leached for 5 days ([11]; 0.05 % in H2 O): 4
growth on wood, not leached ([11]; 0.05 % in H2 O): 4
Action against Artemia salina ([12]; 0,5 mg/l, 6 hours): 1-2
Action against Artemia salina ([12]; 0,5 mg/l, 24 hours): 2-3
Action against Artemia salina ([12]; 0,5 mg/l, 48 hours): 3
Action against Artemia salina ([12]; 0,25 mg/l, 6 hours): 0-1
Action against Artemia salina ([12]; 0,25 mg/l, 24 hours): 2
Action against Artemia salina ([12]; 0,25 mg/l, 48 hours): 2-3
Action against Artemia salina ([12]; 1 mg/l, 6 hours): 2
Action against Artemia salina ([12]; 1 mg/l, 24 hours): 3
Action against Artemia salina ([12]; 1 mg/l, 48 hours): 3
Action against Artemia salina ([12]; 2,5 mg/l, 6 hours): 2-3
Action against Artemia salina ([12]; 2,5 mg/l, 24 hours): 3
Action against Artemia salina ([12]; 2,5 mg/l, 48 hours): 3
MIC against bacteria, strain B [13]: 100 µg/mL
MIC against bacteria, strain F [14]: 100 µg/mL
Growth on the agar (algae-destroying action) ([15]; 6 hours exposure, 14 days incubation): --
Growth in the medium (growth inhibition) ([15]; 14 days): --
MIC against bacteria, strain E [16]: 100 µg/mL
MIC against bacteria, strain D [17]: 100 µg/mL
MIC against bacteria, strain C [18]: 100 µg/mL
Destruction, 5 mg/liter [19]: yes
MIC against fungi, strain S [20]: 2 µg/mL
MIC against fungi, strain Q [21]: 5 µg/mL
